We go through two molecules from patent publication US7803823B2, “2-amino-4,5-trisubstituted thiazolyl derivatives” (Janssen Pharmaceutica NV, priority 2001, dated 2010).

One data set has as its system IL-12p40 production. Nature of the data set: In vitro inhibition of IL-12p40 production in human blood (LPS-stimulated whole blood, sandwich ELISA). The note with it: lipopolysaccharide 100 ng/ml, 24 hours, read-out: % inhib. IL-12 (p40); for inhibition at 1 µM: test dose 1 × 10^−6 M. Type of data set: cell-based. The method, then: (§1) Peripheral blood from healthy male donors was drawn into heparinized syringes (12.5 U heparin/ml). Blood samples were three-fold diluted in RMPI 1640 medium (Life Technologies, Belgium) supplemented with 2 mM L-glutamine, 100 U/ml penicillin and 100 μg/ml streptomycin, and 300 μl fractions were distributed in 24-well multidisc plates (Nunc, Roskilde, Denmark). Blood samples were preincubated (60 minutes at 37° C.) in a humidified 6% CO2-atmosphere with 100 μl of drug solvent (final concentration 0.02% dimethylsulfoxide in RPMI 1640) or with 100 μl of an appropriate dose of test compound before being stimulated by the addition of 100 μl of lipopolysaccharide at a final concentration of 100 ng/ml. After 24 hours, cell-free supernatant fluids were collected by centrifugation and stored at −20° C. until tested for the presence of IL-12p40.
(§2) Cytokine protein concentrations were determined by sandwich ELISA as described in Van Wauwe et al. (1996, Inflamm Res, 45, 357-363). Murine monoclonals used as capture antibodies to human cytokines were obtained from R&D Systems (Abingdon, United Kingdom) and code named MAB210 and MAB611 for TNF-α and IL-12 respectively. Biotinylated goat polyclonal antibodies used to detect human cytokines were from R&D Systems (BAF210, BAF219). Cytokine levels were calculated from standard curves using recombinant cytokines supplied by R&D Systems.
For orientation: In an ELISA, binding on a coated surface is turned into a signal by an enzyme label.

A further data set deals with TNF-α production. Nature of the data set: In vitro inhibition of TNF-α production in human blood (LPS-stimulated whole blood, sandwich ELISA). The format is cell-based. As to conditions: lipopolysaccharide 100 ng/ml, 6 hours, read-out: % inhib. TNF-α. The method, then:
as §1, with “After 6” for “After 24”, “of TNF-α.” for “of IL-12p40.”
as §2

Each structure is given as a SMILES string.

As to `CC(O)c1sc(Nc2cccc(C(F)(F)F)c2)nc1-c1cccnc1` (stereo not drawn) [Compound 14], the inhibition at 1 µM in the data set with IL-12p40 production is 52%.
What is called melting point is the temperature, or range, at which the solid turns liquid. `Fc1sc(Nc2cccc(C(F)(F)F)c2)nc1-c1cccnc1` [Compound 1] returned a melting point of 208 to 210 °C. Further, in the data set on IL-12p40 production, the inhibition at 1 µM amounted to 54%. Besides, the inhibition at 0.1 µM with IL-12p40 production (test dose 1 × 10^−7 M) is 56%. For the same molecule, the inhibition at 1 µM with TNF-α production (test dose 1 × 10^−6 M) was determined as 60%. In addition, in the data set with TNF-α production (test dose 1 × 10^−7 M), the inhibition at 0.1 µM was found to be 58%.
